Assay results as given in PubChem BioAssay (NCI).
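Results reflect a 48-hour exposure of cells in 96-well plates to compound at five concentrations. TGI: concentration producing complete growth inhibition.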

Assays:
Assay in all cases: NCI-60 cell line screen, 48 h
M19-MEL melanoma = system: M19-MEL melanoma
SNB-19 CNS = system: SNB-19 CNS
TK-10 renal = system: TK-10 renal
SF-268 CNS = system: SF-268 CNS
SF-295 CNS = system: SF-295 CNS
SK-MEL-2 melanoma = system: SK-MEL-2 melanoma
ACHN renal = system: ACHN renal
DMS 273 small cell lung = system: DMS 273 small cell lung
OVCAR-5 ovarian = system: OVCAR-5 ovarian
A549 NSCLC = system: A549 NSCLC
UACC-62 melanoma = system: UACC-62 melanoma
EKVX NSCLC = system: EKVX NSCLC
786-0 renal = system: 786-0 renal
HCC-2998 colon = system: HCC-2998 colon
RXF 393 renal = system: RXF 393 renal
UO-31 renal = system: UO-31 renal
U251 CNS = system: U251 CNS
OVCAR-3 ovarian = system: OVCAR-3 ovarian
SNB-78 CNS = system: SNB-78 CNS
HOP-62 NSCLC = system: HOP-62 NSCLC
DMS 114 small cell lung = system: DMS 114 small cell lung
MOLT-4 leukemia = system: MOLT-4 leukemia
MALME-3M melanoma = system: MALME-3M melanoma
SR leukemia = system: SR leukemia
UACC-257 melanoma = system: UACC-257 melanoma
SW-620 colon = system: SW-620 colon
A498 renal = system: A498 renal
HCT-116 colon = system: HCT-116 colon
HCT-15 colon = system: HCT-15 colon
NCI-H460 lung = system: NCI-H460 lung
OVCAR-8 ovarian = system: OVCAR-8 ovarian
CAKI-1 renal = system: CAKI-1 renal
OVCAR-4 ovarian = system: OVCAR-4 ovarian
CCRF-CEM leukemia = system: CCRF-CEM leukemia
KM12 colon = system: KM12 colon
SK-MEL-28 melanoma = system: SK-MEL-28 melanoma
NCI-H522 lung = system: NCI-H522 lung
NCI-H23 lung = system: NCI-H23 lung
SK-MEL-5 melanoma = system: SK-MEL-5 melanoma
NCI-H226 lung = system: NCI-H226 lung
HT29 colon = system: HT29 colon
SF-539 CNS = system: SF-539 CNS
SN12C renal = system: SN12C renal
K-562 leukemia = system: K-562 leukemia
HL-60(TB) leukemia = system: HL-60(TB) leukemia
M14 melanoma = system: M14 melanoma
RXF-631 renal = system: RXF-631 renal
HOP-18 NSCLC = system: HOP-18 NSCLC
HOP-92 NSCLC = system: HOP-92 NSCLC
DLD-1 colon = system: DLD-1 colon
IGROV1 ovarian = system: IGROV1 ovarian
RPMI-8226 leukemia = system: RPMI-8226 leukemia
SK-OV-3 ovarian = system: SK-OV-3 ovarian
COLO 205 colon = system: COLO 205 colon
KM20L2 colon = system: KM20L2 colon
LOX IMVI melanoma = system: LOX IMVI melanoma
LXFL 529 NSCLC = system: LXFL 529 NSCLC
SNB-75 CNS = system: SNB-75 CNS

Cc1ccccc1-n1c(C)nc2c1C(=O)c1ccccc1C2=O
TGI (M19-MEL melanoma): 48.5 µM
TGI (SNB-19 CNS): > 100 µM
TGI (TK-10 renal): > 100 µM
TGI (SF-268 CNS): > 100 µM
TGI (SF-295 CNS): > 100 µM
TGI (SK-MEL-2 melanoma): > 100 µM
TGI (ACHN renal): > 100 µM
TGI (DMS 273 small cell lung): > 100 µM
TGI (OVCAR-5 ovarian): > 100 µM
TGI (A549 NSCLC): > 100 µM
TGI (UACC-62 melanoma): > 100 µM
TGI (EKVX NSCLC): > 100 µM
TGI (786-0 renal): > 100 µM
TGI (HCC-2998 colon): > 100 µM
TGI (RXF 393 renal): > 100 µM
TGI (UO-31 renal): > 100 µM
TGI (U251 CNS): > 100 µM
TGI (OVCAR-3 ovarian): 61.8 µM
TGI (SNB-78 CNS): > 100 µM
TGI (HOP-62 NSCLC): > 100 µM
TGI (DMS 114 small cell lung): 87 µM
TGI (MOLT-4 leukemia): > 100 µM
TGI (MALME-3M melanoma): 41.3 µM
TGI (SR leukemia): > 100 µM
TGI (UACC-257 melanoma): > 100 µM
TGI (SW-620 colon): > 100 µM
TGI (A498 renal): > 100 µM
TGI (HCT-116 colon): > 100 µM
TGI (HCT-15 colon): > 100 µM
TGI (NCI-H460 lung): > 100 µM
TGI (OVCAR-8 ovarian): > 100 µM
TGI (CAKI-1 renal): > 100 µM
TGI (OVCAR-4 ovarian): > 100 µM
TGI (CCRF-CEM leukemia): > 100 µM
TGI (KM12 colon): > 100 µM
TGI (SK-MEL-28 melanoma): > 100 µM
TGI (NCI-H522 lung): 68.3 µM
TGI (NCI-H23 lung): > 100 µM
TGI (SK-MEL-5 melanoma): 53.7 µM
TGI (NCI-H226 lung): > 100 µM
TGI (HT29 colon): > 100 µM
TGI (SF-539 CNS): > 100 µM
TGI (SN12C renal): > 100 µM
TGI (K-562 leukemia): > 100 µM
TGI (HL-60(TB) leukemia): 87.5 µM
TGI (M14 melanoma): > 100 µM

O=C(Nc1cccs1)c1c(O)[nH]c(=S)[nH]c1=O
TGI (SNB-19 CNS): > 100 µM
TGI (RXF-631 renal): > 100 µM
TGI (HOP-18 NSCLC): > 100 µM
TGI (TK-10 renal): > 100 µM
TGI (SF-268 CNS): > 100 µM
TGI (SF-295 CNS): > 100 µM
TGI (HOP-92 NSCLC): > 100 µM
TGI (SK-MEL-2 melanoma): > 100 µM
TGI (ACHN renal): > 100 µM
TGI (DLD-1 colon): > 100 µM
TGI (OVCAR-5 ovarian): > 100 µM
TGI (A549 NSCLC): > 100 µM
TGI (UACC-62 melanoma): > 100 µM
TGI (786-0 renal): > 100 µM
TGI (UO-31 renal): > 100 µM
TGI (IGROV1 ovarian): > 100 µM
TGI (U251 CNS): > 100 µM
TGI (OVCAR-3 ovarian): > 100 µM
TGI (HOP-62 NSCLC): > 100 µM
TGI (DMS 114 small cell lung): > 100 µM
TGI (MOLT-4 leukemia): > 100 µM
TGI (RPMI-8226 leukemia): > 100 µM
TGI (SR leukemia): > 100 µM
TGI (UACC-257 melanoma): > 100 µM
TGI (SW-620 colon): > 100 µM
TGI (A498 renal): > 100 µM
TGI (HCT-15 colon): > 100 µM
TGI (SK-OV-3 ovarian): > 100 µM
TGI (NCI-H460 lung): > 100 µM
TGI (OVCAR-8 ovarian): > 100 µM
TGI (CAKI-1 renal): > 100 µM
TGI (COLO 205 colon): > 100 µM
TGI (OVCAR-4 ovarian): > 100 µM
TGI (CCRF-CEM leukemia): > 100 µM
TGI (KM12 colon): > 100 µM
TGI (KM20L2 colon): > 100 µM
TGI (SK-MEL-28 melanoma): > 100 µM
TGI (NCI-H522 lung): > 100 µM
TGI (LOX IMVI melanoma): > 100 µM
TGI (NCI-H23 lung): > 100 µM
TGI (SK-MEL-5 melanoma): > 100 µM
TGI (NCI-H226 lung): > 100 µM
TGI (SF-539 CNS): > 100 µM
TGI (SN12C renal): > 100 µM
TGI (K-562 leukemia): > 100 µM
TGI (M14 melanoma): > 100 µM

COC(=O)C(C(=O)C(=O)Nc1ccc(C(F)(F)F)cc1[N+](=O)[O-])c1csc(-n2nc(-c3ccccc3)cc2-c2ccccc2)n1 (stereo not given)
TGI (M19-MEL melanoma): > 100 µM
TGI (LXFL 529 NSCLC): > 100 µM
TGI (SNB-19 CNS): > 100 µM
TGI (TK-10 renal): > 100 µM
TGI (SF-295 CNS): > 100 µM
TGI (SK-MEL-2 melanoma): > 100 µM
TGI (DMS 273 small cell lung): > 100 µM
TGI (OVCAR-5 ovarian): > 100 µM
TGI (A549 NSCLC): > 100 µM
TGI (UACC-62 melanoma): > 100 µM
TGI (SNB-75 CNS): > 100 µM
TGI (786-0 renal): > 100 µM
TGI (HCC-2998 colon): > 100 µM
TGI (RXF 393 renal): > 100 µM
TGI (UO-31 renal): > 100 µM
TGI (IGROV1 ovarian): > 100 µM
TGI (U251 CNS): > 100 µM
TGI (OVCAR-3 ovarian): > 100 µM
TGI (SNB-78 CNS): > 100 µM
TGI (HOP-62 NSCLC): > 100 µM
TGI (DMS 114 small cell lung): > 100 µM
TGI (MOLT-4 leukemia): > 100 µM
TGI (MALME-3M melanoma): > 100 µM
TGI (RPMI-8226 leukemia): > 100 µM
TGI (SR leukemia): > 100 µM
TGI (UACC-257 melanoma): > 100 µM
TGI (SW-620 colon): > 100 µM
TGI (A498 renal): > 100 µM
TGI (HCT-116 colon): > 100 µM
TGI (HCT-15 colon): > 100 µM
TGI (SK-OV-3 ovarian): > 100 µM
TGI (NCI-H460 lung): > 100 µM
TGI (OVCAR-8 ovarian): > 100 µM
TGI (CAKI-1 renal): > 100 µM
TGI (COLO 205 colon): > 100 µM
TGI (OVCAR-4 ovarian): > 100 µM
TGI (CCRF-CEM leukemia): > 100 µM
TGI (KM12 colon): > 100 µM
TGI (KM20L2 colon): > 100 µM
TGI (NCI-H522 lung): > 100 µM
TGI (LOX IMVI melanoma): > 100 µM
TGI (NCI-H23 lung): > 100 µM
TGI (NCI-H226 lung): > 100 µM
TGI (HT29 colon): > 100 µM
TGI (SF-539 CNS): > 100 µM
TGI (SN12C renal): > 100 µM
TGI (K-562 leukemia): > 100 µM
TGI (HL-60(TB) leukemia): > 100 µM
TGI (M14 melanoma): > 100 µM

O=c1[nH]c(=O)n([C@@H]2C[C@H](CO)[C@H](O)C2)cc1/C=C/Br
TGI (M19-MEL melanoma): > 100 µM
TGI (LXFL 529 NSCLC): > 100 µM
TGI (SNB-19 CNS): > 100 µM
TGI (RXF-631 renal): > 100 µM
TGI (HOP-18 NSCLC): > 100 µM
TGI (TK-10 renal): > 100 µM
TGI (SF-268 CNS): > 100 µM
TGI (SF-295 CNS): > 100 µM
TGI (HOP-92 NSCLC): > 100 µM
TGI (SK-MEL-2 melanoma): > 100 µM
TGI (ACHN renal): > 100 µM
TGI (DLD-1 colon): > 100 µM
TGI (DMS 273 small cell lung): > 100 µM
TGI (OVCAR-5 ovarian): > 100 µM
TGI (A549 NSCLC): > 100 µM
TGI (UACC-62 melanoma): > 100 µM
TGI (EKVX NSCLC): > 100 µM
TGI (SNB-75 CNS): > 100 µM
TGI (786-0 renal): > 100 µM
TGI (HCC-2998 colon): > 100 µM
TGI (UO-31 renal): > 100 µM
TGI (IGROV1 ovarian): > 100 µM
TGI (U251 CNS): > 100 µM
TGI (OVCAR-3 ovarian): > 100 µM
TGI (SNB-78 CNS): > 100 µM
TGI (HOP-62 NSCLC): > 100 µM
TGI (DMS 114 small cell lung): > 100 µM
TGI (MOLT-4 leukemia): > 100 µM
TGI (MALME-3M melanoma): > 100 µM
TGI (RPMI-8226 leukemia): > 100 µM
TGI (UACC-257 melanoma): > 100 µM
TGI (SW-620 colon): > 100 µM
TGI (A498 renal): > 100 µM
TGI (HCT-116 colon): > 100 µM
TGI (HCT-15 colon): > 100 µM
TGI (SK-OV-3 ovarian): > 100 µM
TGI (NCI-H460 lung): > 100 µM
TGI (OVCAR-8 ovarian): > 100 µM
TGI (CAKI-1 renal): > 100 µM
TGI (OVCAR-4 ovarian): > 100 µM
TGI (CCRF-CEM leukemia): > 100 µM
TGI (KM12 colon): > 100 µM
TGI (KM20L2 colon): > 100 µM
TGI (SK-MEL-28 melanoma): > 100 µM
TGI (NCI-H522 lung): > 100 µM
TGI (LOX IMVI melanoma): > 100 µM
TGI (NCI-H23 lung): > 100 µM
TGI (SK-MEL-5 melanoma): > 100 µM
TGI (NCI-H226 lung): > 100 µM
TGI (HT29 colon): > 100 µM
TGI (SF-539 CNS): > 100 µM
TGI (K-562 leukemia): > 100 µM
TGI (HL-60(TB) leukemia): > 100 µM
TGI (M14 melanoma): > 100 µM
